Results: patent publication US6517864B1 (Pharmacia AB, priority 1998, dated 2003)

Key:
guinea pigs = experiment: Delayed contact hypersensitivity, Guinea Pig Maximization Test; format: in vivo; settings: 1% intradermal induction, 25% topical induction and challenge, in sesame oil
Excerpt: The delayed contact hypersensitivity test used was the Guinea Pig Maximization Test described by B. Magnusson and A. M. Kligman.
A 1% (w/w) test article concentration in sesame oil was used for the intradermal induction. A 25% (w/w) test article concentration in sesame oil was used for the topical induction and for the challenge application.

[1] = In vitro permeation across synthetic membranes and dermatomed pig skin from solutions of tolterodine base (Franz diffusion cells, Example 2); format: in vitro ADME
Method: In vitro skin permeation results were obtained from studies on pig or human skin using Franz diffusion cells.
Full thickness pig and human skin (used in Example 1) or 765 μm skin (used in all other Examples) was used. The 765 μm skin was isolated by using a dermatome (Zimmer Electric Dermatome 8821, Zimmer Chirurgie).
The skin was mounted in the diffusion cells with an available diffusion area of 1.8 cm^2. The inner side of the skin was exposed to 12.1 ml receptor phase (0.05M phosphate buffer, pH 7.4) at 37±1° C. Samples were withdrawn periodically and measured by HPLC. Fluxes (>g/cm^2/h) were obtained by linear regression of data at steady state.
In vitro permeation studies across synthetic membranes and dermatomed pig skin from solutions of tolterodine base, imitating the reservoir type transdermal device. Enhancer was added to one of the solutions.
Membranes of the following types were used: CoTran 9702 (microporous polyethylene film) with 9% vinyl acetate (VA) and CoTran 9728 with 19% vinyl acetate. The solutions 3 and 4 were both applied on the surface of the two mentioned membranes while solution 5 only was applied on the surface of the CoTran 9702 membrane with 9% vinyl acetate. The membranes were placed on top of dermatomed pigskin. The inner sides of the pigskin were exposed to 12.1 ml receptor solution (0.05M phosphate pH 7.4 equilibrated to 37±1° C.).

[2] = poor metabolizer; cited from earlier work
solubility in water = settings: room temperature
[3] = pharmacokinetics of oral tolterodine (background data); settings: extensive metabolisers, EMs
[4] = partition coefficient between n-octanol and phosphate buffer; settings: n-octanol / phosphate buffer at pH 7.32

| Substance | delayed contact hypersensitivity reaction (guinea pigs) | flux ([1]; 1 or 3% HPC/ethanol solution, 9% VA CoTran membrane on dermatomed pigskin) | flux ([1]; 1 or 3% HPC/ethanol solution, 19% VA CoTran membrane on dermatomed pigskin) | flux ([1]; enhancer (methyl laurate:ethanol 1:9), 9% VA CoTran membrane on dermatomed pigskin) [μg/cm^2/h] | systemic clearance (CL) [2] | solubility in water (solubility in water) | half-life [3] | partition coefficient (Log P) [4] |
| --- | --- | --- | --- | --- | --- | --- | --- | --- |
| tolterodine L-tartrate | did not provoke a delayed contact hypersensitivity reaction | – | – | – | – | – | – | – |
| N,N-dilso-propyl-3′-(2-hydroxy-5-methylphenyl)-3-phenylpropanamine [Tolterodine] | – | about 4 μg/cm^2/h | about 11 μg/cm^2/h | 9 | about 10 L/h | about 11 mg/ml | about 2 hours | 1.83 |
